# Laboratory results: paper PMC7771853, “Differential effects of novel kappa opioid receptor antagonists on dopamine neurons using acute brain slice electrophysiology” (PLoS ONE, 2020)
# Columns and labels:
# [1] = tested on: VTA neurons; assay: Wash in of antagonist: change in Iholding in VTA neurons; assay type: cell-based, rat; conditions: for change in Iholding on wash in: across the concentrations tested
# [2] = tested on: KOR; set-up: method as in PMID 21832171; conditions: cited from earlier work
smiles,measurement,setting,value
"CCc1cc(F)c2nc(N3CCC(NC4CCOCC4)CC3)c(-c3nc(C)no3)c(C)c2c1 [BTRX-335140, 1-(6-ethyl-8-fluoro-4-methyl-3-(3-methyl-1,2,4-oxadiazol-5-yl)quinolin-2-yl)-N-(tetrahydro-2H-pyran-4-yl)piperidin-4 amine]",change in Iholding on wash in,[1],means very close to zero
CCc1ccc2nc(N3CCC(NCC4(C)COC4)CC3)c(-c3nc(C)no3)cc2c1 [BTRX-395750],change in Iholding on wash in,[1],means very close to zero
"Cc1cc(C)cc([C@@H]2CCCN2Cc2ccc(Oc3ccc(C(N)=O)cc3F)cc2)c1 [JNJ-67953964, (S)-3-fluoro-4-(4-((2-(3,5-dimethylphenyl)pyrrolidin-1-yl)methyl)phenoxy)benzamide]",neurons with possible inward current on wash in,[1]; 10 nM antagonist,3 of 13
"CC(C)CNCc1ccc(-c2ccccc2S(=O)(=O)N2CCCC2)cc1 [PF-04455242, 2-methyl-N-((2'-(pyrrolidin-1-ylsulfonyl)biphenyl-4-yl)methyl)propan-1-amine]",neurons with outward current independent of KOR activation,[1]; 1 μM antagonist,3/8
same,extracellular signal-regulated kinase (ERK) phosphorylation,[2]; HEK293 cells expressing KOR ref 21,did not generate
same,c-Jun N terminal kinase (JNK) phosphorylation,"[2]; HEK293 cells expressing KOR, compared to other KOR antagonists ref 21",minimal
